Tests used:
Type in all cases: ADME, organism-based
Homo sapiens [1] = test: Evaluation of the pharmacokinetic parameters for Rivastigmine following multiple oral administration of 6 mg Rivastigmine tablets.; conditions: in vivo, dosed compound id 5, dosed compound name RIVASTIGMINE, regimen Twice daily, tissue Plasma
[2] = (§1) Evaluation of the pharmacokinetic parameters for Rivastigmine 0.5 to 1 hour after administration of 9.5 mg/24 hours Rivastigmine transdermal system (Exelon patch).; conditions: human, in vivo, topical or ocular, dosed compound id 5, dosed compound name RIVASTIGMINE, regimen Single dose, sampling time1 0.5-1 hr, study dosing duration 24 hr, tissue Plasma
Homo sapiens [3] = test: as §1; conditions: in vivo, topical_or_ocular, dosed compound id 5, dosed compound name RIVASTIGMINE, regimen Single dose, sampling time1 0.5-1 hr, study dosing duration 24 hr

## CCN(C)C(=O)Oc1cccc([C@H](C)N(C)C)c1 [RIVASTIGMINE]
Homo sapiens [1]
  Ratio AUC(inf): 3.5
[2]; 9.5 mg/24 hours
  CL renal: 35 to 46.7 mL/min
[2]; at 9.5 mg, read-out: Protein binding (converted)
  fraction unbound: 0.6
Homo sapiens [3]; tissue Cerebrospinal Fluid (CSF)
  Tmax: 1.4 to 2.6 h
Homo sapiens [3]; tissue Plasma
  Tmax: 8 h
  Vd: 1.8 to 2.7 L/kg
